According to patent publication US11357719B2, “Method for obtaining a diglycoside-enriched Armeria maritima extract, and use thereof in cosmetics” (BIOTECHMARINE, priority 2016, dated 2022):
“And” between values parts separate entries of the source, which are not always exact repeats. Identical values can stand only once.

What was measured:
[1] = system: normal human fibroblasts; experiment: Phototoxicity evaluation based on OECD test no. 432 (in vitro 3T3 NRU phototoxicity test), MTT viability; format: cell-based
Protocol: This evaluation is carried out based on the experimental conditions of test no. 432, entitled “in vitro 3T3 NRU phototoxicity test” from the OECD guidelines for testing chemicals, regarding conditions related to culture kinetics and to the acceptable dosage limit for Chlopromazine (CPZ). This guideline describes a method for evaluating photo-cytotoxicity by the relative reduction in the viability of the cells exposed to the chemical product in the presence or absence of light.
A pool of normal human fibroblasts of Caucasian type is used and amplified for five days in a 75 cm^2 flask in specific culture medium containing 10% FBS*. The cells are then seeded in culture wells of a 96-well plate (4 wells/condition), at 10 000 cells/well, in 200 μl of specific culture medium containing 10% FBS (Fetal Bovine Serum). 24 h after seeding, the cells are treated with the products for the test, prepared in EBSS (Earle's balance salt Solution) for one hour. At the end of this incubation, the cells are exposed (+irr) or not exposed (−irr) to a dose of 1 J/cm^2 of UVA, in the presence of the products being tested. At the end of this exposure, the cell layers are rinsed then brought back into contact with specific culture medium containing 2% of FBS. 24 h after this change, the cell viability is evaluated using the MTT method (colorimetric assay, visualized at 540 nm). The results are expressed as percentage viability relative to the control. The following parameters are deduced therefrom:
EC50: Concentration of active agent inducing 50% toxicity (−irr) or phototoxicity (+irr)
PIF (photo-irradiation factor): EC50(−irr)/EC50(+irr)
2<PIF<5: Probable phototoxicity

[2] = system: purified collagenase; experiment: Anti-collagenase activity, EnzCheck gelatinase/collagenase Assay Kit (cell-free, fluorimetry); format: biochemical, Clostridium Histolyticum; details: for Fluorescence: 2 h incubation at room temperature, blank subtracted; for Inhibition: relative to control group
Protocol: A purified collagenase is used and the degradation of its pro-fluorescent substrate is monitored by fluorimetry.
The anti-collagenase activity is evaluated using a commercially available kit (EnzCheck™ gelatinase/collagenase Assay Kit, Molecular Probes, reference E-12055).
This is a test based on a cell-free biochemical evaluation using a purified collagenase from a […] (Clostridium Histolyticum) and a purified gelatin from porcine skin, purified type I collagen from bovine skin or purified type IV collagen from human placenta. […] The increase in the fluorescence is proportional to the MMP activity. A decrease in this fluorescence is expected in the presence of anti-MMP active agents. The test is validated using a reference anti-MMP inhibitor provided in the kit, 1,10-phenanthroline, tested at 0.01% and 0.001%.
The products are placed on a 96-well plate in the following manner:
The products are left to incubate for two hours at room temperature in darkness, then the fluorescence is determined (Excitation 495 nm; Emission: 515 nm). Each test is repeated three times. For each sample, the values are subtracted from the blank test. The percentage inhibition corresponds to the ratio of the mean of the collagenase activity obtained for each extract to the mean of the collagenase activity of the control group.

SMILES | PIF (photo-irradiation factor): EC50(−irr)/EC50(+irr) ([1]; PIF<2 no phototoxicity, 2<PIF<5 probable phototoxicity, PIF>5 phototoxicity) | EC50(+irr): concentration of active agent inducing 50% phototoxicity ([1]; exposed to 1 J/cm^2 of UVA, MTT viability 24 h after) | EC50(−irr): concentration of active agent inducing 50% toxicity ([1]; not exposed to UVA, MTT viability 24 h after) | Fluorescence ([2]; product at 0.001%) | Inhibition ([2]; product at 0.001%) | Fluorescence ([2]; product at 0.01%) | Inhibition ([2]; product at 0.01%) [%]
CN(C)CCCN1c2ccccc2Sc2ccc(Cl)cc21 [CPZ, Chlopromazine] | 89.2 | 0.25 | 22.30 |  |  |  | 
c1cnc2c(c1)ccc1cccnc12 [1,10-phenanthroline] |  |  |  | 37.13 AU and 24.41 AU | 66% and 76% | 0.91 AU and 1.07 AU | 99
